{"source": "patent US20250049800A1", "about": "“VCP/p97 INHIBITOR FOR THE TREATMENT OF CANCER” (CASI Pharmaceuticals, Inc., priority 2021, published 2025)", "assay_in_all_cases": "Cell Titer-Glo viability, fixed agent + dose response agent combinations", "type_in_all_cases": "cell-based, human", "key": {"[1]": {"system": "HL-60 cell line", "conditions": "for Combination:Monotherapy IC50 Ratio: HL-60; for IC50: Homo sapiens, HL-60, HL-60, read-out: IC50", "experimental": "(§1) The additional therapeutic agents for this example were azacitidine (Cayman Chemical Cat No. 11164), decitabine (Sigma Cat No. A3656) and venetoclax (InvivoChem Cat. No. V0001).\n(§2) Cell Culture: Three human acute myeloid leukemia tumor cell lines were used in this study: HL60, MV4;11 and MOLM-13. HL60 and MV4;11 were grown in IMDM base media with 20% and 10% FBS, respectively. MOLM-13 was grown in RPMI 1640 base media with 20% FBS. All culture media contained 2 mM glutamine, 100 units/mL sodium penicillin G, […] gentamicin, and 100 µg/mL streptomycin sulfate. The tumor cells were cultured in tissue culture flasks in a humidified incubator at 37° C., in an atmosphere of 5% CO2 and 95% air. Assay: Tumor cells were seeded in duplicate in a volume of 100 µL/well of media into 96-well micro-culture plates at initial densities low enough to allow for several population doublings (typically three to five) during the indicated incubation period. After a 24 hour incubation, test agents were added to each well. After 72 hours of culture with test articles, cell viability was determined using the Cell Titer-Glo® (Promega G7571) assay. Briefly, Cell Titer-Glo® (Promega G7571) reagents were equilibrated at room temperature for 30 minutes; 100 μL per well was added at endpoint (72 hours). Plates were gently shaken for two minutes and then incubated at room temperature for ten minutes prior to reading luminescence on the BMG Clariostar Plus microplate reader.\n(§3) An IC50 ratio for each combination was calculated from the ratio of the combination IC50 as compared to the applicable no fixed agent (vehicle) control."}, "[2]": {"system": "MOML-13 cell line", "conditions": "MOML-13; for IC50: Homo sapiens, read-out: IC50", "experimental": "as §1, §2, §3"}, "[3]": {"system": "MV4; 11 cell line", "conditions": "11; for IC50: Homo sapiens, MV4-11, MV4, read-out: IC50; for Combination:Monotherapy IC50 Ratio: MV4", "experimental": "as §1, §2, §3"}, "[4]": {"conditions": "fixed agent Azacitidine - 5750 nM"}, "[5]": {"conditions": "fixed agent Azacitidine - 9800 nM"}, "[6]": {"conditions": "fixed agent Decitabine - 175 nM"}, "[7]": {"conditions": "fixed agent Decitabine - 1700 nM"}, "[8]": {"conditions": "fixed agent Venetoclax + Azacitidine - 85 nM"}, "[9]": {"conditions": "fixed agent Venetoclax + Azacitidine - 475 nM"}, "[10]": {"conditions": "fixed agent Azacitidine - 105 nM"}, "[11]": {"conditions": "fixed agent Azacitidine - 850 nM"}, "[12]": {"conditions": "fixed agent Decitabine - 2.5 nM"}, "[13]": {"conditions": "fixed agent Decitabine - 8.5 nM"}, "[14]": {"conditions": "fixed agent Venetoclax + Azacitidine - 6.5 nM"}, "[15]": {"conditions": "fixed agent Venetoclax + Azacitidine - 20 nM"}, "[16]": {"conditions": "fixed agent Azacitidine - 500 nM"}, "[17]": {"conditions": "fixed agent Azacitidine - 3150 nM"}, "[18]": {"conditions": "fixed agent Decitabine - 215 nM"}, "[19]": {"conditions": "fixed agent Venetoclax + Azacitidine - 50 nM"}}, "note": "Like-named read-outs stand apart in the source and are kept apart here.", "data": [{"smiles": "Cc1cc2c(C(N)=O)cccc2n1-c1nc2c(c(NCc3ccccc3)n1)CCCN2", "note": "[Compound 1, 1-(4-(benzylamino)-5,6,7,8-tetrahydropyrido[2,3-d]pyrimidin-2-yl)-2-methyl-1H-indole-4-carboxamide]", "values": [{"measurement": "Combination:Monotherapy IC50 Ratio", "setting": "[1]; [4]", "result": 1.02}, {"measurement": "Combination:Monotherapy IC50 Ratio", "setting": "[1]; [5]", "result": 0.85}, {"measurement": "Combination:Monotherapy IC50 Ratio", "setting": "[1]; [6]", "result": 0.96}, {"measurement": "Combination:Monotherapy IC50 Ratio", "setting": "[1]; [7]", "result": 1.06}, {"measurement": "Combination:Monotherapy IC50 Ratio", "setting": "[1]; [8]", "result": 0.84}, {"measurement": "Combination:Monotherapy IC50 Ratio", "setting": "[1]; [9]", "result": 0.84}, {"measurement": "IC50", "setting": "[1]; [4]", "result": 311, "unit": "nM"}, {"measurement": "IC50", "setting": "[1]; [5]", "result": 258, "unit": "nM"}, {"measurement": "IC50", "setting": "[1]; [6]", "result": 294, "unit": "nM"}, {"measurement": "IC50", "setting": "[1]; [7]", "result": 322, "unit": "nM"}, {"measurement": "IC50", "setting": "[1]; [8]", "result": 256, "unit": "nM"}, {"measurement": "IC50", "setting": "[1]; [9]", "result": 256, "unit": "nM"}, {"measurement": "IC50", "setting": "[2]; [10]", "result": 84.6, "unit": "nM"}, {"measurement": "IC50", "setting": "[2]; [11]", "result": 84.9, "unit": "nM"}, {"measurement": "IC50", "setting": "[2]; [12]", "result": 121, "unit": "nM"}, {"measurement": "IC50", "setting": "[2]; [13]", "result": 65, "unit": "nM"}, {"measurement": "IC50", "setting": "[2]; [14]", "result": 154, "unit": "nM"}, {"measurement": "IC50", "setting": "[2]; [15]", "result": 113, "unit": "nM"}, {"measurement": "Combination:Monotherapy IC50 Ratio", "setting": "[2]; [10]", "result": 0.39}, {"measurement": "Combination:Monotherapy IC50 Ratio", "setting": "[2]; [11]", "result": 0.39}, {"measurement": "Combination:Monotherapy IC50 Ratio", "setting": "[2]; [12]", "result": 0.56}, {"measurement": "Combination:Monotherapy IC50 Ratio", "setting": "[2]; [13]", "result": 0.30}, {"measurement": "Combination:Monotherapy IC50 Ratio", "setting": "[2]; [14]", "result": 0.71}, {"measurement": "Combination:Monotherapy IC50 Ratio", "setting": "[2]; [15]", "result": 0.52}, {"measurement": "IC50", "setting": "[3]; [16]", "result": 114, "unit": "nM"}, {"measurement": "IC50", "setting": "[3]; [17]", "result": 118, "unit": "nM"}, {"measurement": "IC50", "setting": "[3]; fixed agent Decitabine - 30 nM", "result": 117, "unit": "nM"}, {"measurement": "IC50", "setting": "[3]; [18]", "result": 91.5, "unit": "nM"}, {"measurement": "IC50", "setting": "[3]; [15]", "result": 163, "unit": "nM"}, {"measurement": "IC50", "setting": "[3]; [19]", "result": 118, "unit": "nM"}, {"measurement": "Combination:Monotherapy IC50 Ratio", "setting": "[3]; [16]", "result": 0.46}, {"measurement": "Combination:Monotherapy IC50 Ratio", "setting": "[3]; [17]", "result": 0.47}, {"measurement": "Combination:Monotherapy IC50 Ratio", "setting": "[3]; fixed agent Decitabine - 30 nM", "result": 0.47}, {"measurement": "Combination:Monotherapy IC50 Ratio", "setting": "[3]; [18]", "result": 0.36}, {"measurement": "Combination:Monotherapy IC50 Ratio", "setting": "[3]; [15]", "result": 0.65}, {"measurement": "Combination:Monotherapy IC50 Ratio", "setting": "[3]; [19]", "result": 0.47}]}]}
